Patent US20160319277A1, “METHODS OF IMPROVED PROTEIN PRODUCTION USING MIRNAs AND SIRNAs” (THE JOHNS HOPKINS UNIVERSITY, priority 2015, published 2016)
Read-outs that look alike come from different tables or passages of the source.

Test system: HEK-CMV-Luc2-Hygro cells
Test: High-throughput genome-wide siRNA screen and validation screen for luciferase expression
Type: cell-based, human
Conditions: for per_cell / VIA: Table 3; for per_cell: per cell luciferase yield relative to negative control; for VIA: viable cell density as % of negative control; for Luciferase activity (%) / Per cell luciferase yield (%) / Viable cell number (%): Table 6, polyamine pathway gene siRNAs
Procedure: The Silencer Select™ Human genome siRNA library (Ambion), which targets 21,585 human genes with 3 siRNAs per gene, was used for screening. Each siRNA is arrayed in an individual well (Corning 3570, 384 well, white, solid bottom plates). The transfection was done in duplicates: 0.8 pmol of each siRNA was spotted to a well of a 384-well plate (Corning) and 20 μL of serum-free DMEM containing 0.07 μL of Lipofectamine™ RNAiMax (Life Technologies) was then added to each well. This lipid-siRNA mixture was incubated at ambient temperature for 30 min prior to addition of 4000 cells in 20 μL of DMEM containing 20% FBS (Gibco). After incubating the transfected cells at 37° C. in 5% CO2 for 72 hours, 20 μL of ONE-Glo™ Reagent (Promega) was added to one set of replicates for ‘overall luciferase yield’ quantification and 20 μL of CellTiter-Glo™ Reagent (Promega) was added to the second set of replicates for ‘viable cell density’ measurement. All plates were incubated at room temperature for 20 minutes to stabilize the luminescent signal and the signal was then measured with PerkinElmer Envision 2104 Multilabel™ plate reader.
The 56 genes which got targeted by at least two independent siRNAs (out of three) resulting in enhanced luciferase production with MAD-based z-score>3 from the primary screen were subjected to validation screen using 3 additional Silencer™ siRNAs (Ambion) with different sequences from those used in the primary screen. […] The transfection and assay processes were-the same as the primary genome-wide screen. Data visualization was performed in R computational environment (available on the World Wide Web at R-project.org/) by using ‘hexbin’ and ‘ggplot2’ packages.
The screen generated end-point data for ‘overall luciferase yield’ and ‘viable cell density’ in each well. For each plate, the median value of the negative control wells was set as 100% and was used to normalize corresponding sample wells. The ‘overall luciferase yield’ and ‘viable cell density’ were exported as % of negative control and the median absolute deviation (MAD)-based z-score was calculated for each sample.

[1] = Table 4, primary screen, 72 h, negative control = 100%

Substance: 199 (CUAACUACCCAGACCCUUATT; chemistry not given here; listed as Homo sapiens) [compound 199]
- Viable cell density (%) [1]: 88.359%
- per cell luciferase yield (%) [1]: 164.639%

Substance: 98 (CAACGGGACUAUUAUGAUATT; chemistry not given here; listed as Homo sapiens) [compound 98]
- Viable cell density (%) [1]: 97.392%
- per cell luciferase yield (%) [1]: 163.496%

Substance: 62 (AGGUCAAUGUGACUUUCCATT; chemistry not given here; listed as Homo sapiens) [compound 62]
- per_cell (primary screen, 72 h): 161.8
- VIA (primary screen, 72 h): 105

Substance: 140 (GUCCGAGUGUGGUUCUGUATT; chemistry not given here; listed as Homo sapiens) [compound 140]
- Viable cell density (%) [1]: 85.820%
- per cell luciferase yield (%) [1]: 180.401%

Substance: 104 (GGCGAAUGCUCCUGACUAATT; chemistry not given here; listed as Homo sapiens) [compound 104]
- Viable cell density (%) [1]: 103.888%
- per cell luciferase yield (%) [1]: 156.977%

Substance: 133 (GAACUUCAAUGGAAAACAUTT; chemistry not given here; listed as Homo sapiens) [compound 133]
- Viable cell density (%) [1]: 63.577%
- per cell luciferase yield (%) [1]: 250.367%

Substance: 117 (GGCUGUACAUAGUCCUUUUTT; chemistry not given here; listed as Homo sapiens) [compound 117]
- Viable cell density (%): 66.394%
- per cell luciferase yield (%) [1]: 238.463%

Substance: 176 (GUUGCAAACUUAUCGAGGATT; chemistry not given here; listed as Homo sapiens) [compound 176]
- Viable cell density (%) [1]: 79.093%
- per cell luciferase yield (%) [1]: 186.786%

Substance: 97 (GAUGAAGAAUGAUAAGUCATT; chemistry not given here; listed as Homo sapiens) [compound 97]
- Viable cell density (%) [1]: 96.599%
- per cell luciferase yield (%) [1]: 184.201%

Substance: 226 (CACUCGCAGUUAAUAUCAUTT; chemistry not given here; listed as Homo sapiens) [compound 226]
- Luciferase activity (%): 25.2%
- Per cell luciferase yield (%): 39.0%
- Viable cell number (%): 64.6%

Substance: 132 (GGACGGAAGCGAAAAUCGATT; chemistry not given here; listed as Homo sapiens) [compound 132]
- Viable cell density (%) [1]: 71.473%
- per cell luciferase yield (%) [1]: 216.209%

Substance: 148 (CAGCCUCACCAAGCACAAATT; chemistry not given here; listed as Homo sapiens) [compound 148]
- Viable cell density (%) [1]: 85.866%
- per cell luciferase yield (%) [1]: 167.413%

Substance: 109 (GCAUCGAGGAGACUAACAATT; chemistry not given here; listed as Homo sapiens) [compound 109]
- Viable cell density (%) [1]: 51.696%
- per cell luciferase yield (%) [1]: 275.068%

Substance: 58 (ACAGGUCUUUAUCAAAGCATT; chemistry not given here; listed as Homo sapiens) [compound 58]
- per_cell (primary screen, 72 h): 3.426
- VIA (primary screen, 72 h): 100.2

Substance: 50 (GGAGGAAUCUCGAAUGCGATT; chemistry not given here; listed as Homo sapiens) [compound 50]
- per_cell (primary screen, 72 h): 173.3
- VIA (primary screen, 72 h): 96

Substance: 64 (GAUCGUUUGAGAGAACAAATT; chemistry not given here; listed as Homo sapiens) [compound 64]
- per_cell (primary screen, 72 h): 210.3
- VIA (primary screen, 72 h): 77.11

Substance: 59 (AGAUCUUUGUCAAGGUGUATT; chemistry not given here; listed as Homo sapiens) [compound 59]
- per_cell (primary screen, 72 h): 153.4
- VIA (primary screen, 72 h): 96.26

Substance: 142 (AAGUCAACAUAGCCCGAAATT; chemistry not given here; listed as Homo sapiens) [compound 142]
- Viable cell density (%) [1]: 111.487%
- per cell luciferase yield (%) [1]: 145.707%

Substance: 172 (GGAUAUUGGAGGCUAGUCATT; chemistry not given here; listed as Homo sapiens) [compound 172]
- Viable cell density (%) [1]: 289.677%
- per cell luciferase yield (%) [1]: 157.868%

Substance: 186 (CGAAACUUGUCAACGGGAATT; chemistry not given here; listed as Homo sapiens) [compound 186]
- Viable cell density (%) [1]: 104.553%
- per cell luciferase yield (%) [1]: 179.207%

Substance: 218 (GGACCUCCCUGUGAAUGAUTT; chemistry not given here; listed as Homo sapiens) [compound 218]
- Luciferase activity (%): 95.4%
- Per cell luciferase yield (%): 110.9%
- Viable cell number (%): 86.0%

Substance: 49 (CGAAACUUGUCAACGGGAATT; chemistry not given here; listed as Homo sapiens) [compound 49]
- per_cell (primary screen, 72 h): 179.2
- VIA (primary screen, 72 h): 104.6

Substance: 146 (GACCUAUACUCAUUCUGCATT; chemistry not given here; listed as Homo sapiens) [compound 146]
- Viable cell density (%) [1]: 83.351%
- per cell luciferase yield (%) [1]: 171.308%

Substance: 203 (GAUUACUUCUUGACUAUCATT; chemistry not given here; listed as Homo sapiens) [compound 203]
- Viable cell density (%) [1]: 123.199%
- per cell luciferase yield (%) [1]: 150.843%

Substance: 137 (GAACCGUCGCUACAAGACATT; chemistry not given here; listed as Homo sapiens) [compound 137]
- Viable cell density (%) [1]: 88.616%
- per cell luciferase yield (%) [1]: 212.905%

Substance: 190 (CUGUGGAAAAGAUACCGUATT; chemistry not given here; listed as Homo sapiens) [compound 190]
- Viable cell density (%) [1]: 95.368%
- per cell luciferase yield (%) [1]: 152.850%

Substance: 91 (CAGCAAACCUUUGACCAGATT; chemistry not given here; listed as Homo sapiens) [compound 91]
- per_cell (primary screen, 72 h): 277.5
- VIA (primary screen, 72 h): 55.4

Substance: 205 (CUCUGAUUGUCACCUCUUATT; chemistry not given here; listed as Homo sapiens) [compound 205]
- Viable cell density (%) [1]: 61.943%
- per cell luciferase yield (%) [1]: 281.113%

Substance: 209 (GAACUUCACAAGUUCCUCATT; chemistry not given here; listed as Homo sapiens) [compound 209]
- Viable cell density (%) [1]: 84.418%
- per cell luciferase yield (%) [1]: 228.634%

Substance: 68 (CAGGUAGUGUAAGCCCUCATT; chemistry not given here; listed as Homo sapiens) [compound 68]
- per_cell (primary screen, 72 h): 303
- VIA (primary screen, 72 h): 66.87

Substance: 170 (CCAACAAGGAAGACGAAAATT; chemistry not given here; listed as Homo sapiens) [compound 170]
- Viable cell density (%) [1]: 267.320%
- per cell luciferase yield (%) [1]: 284.062%

Substance: 60 (GGCGAAUGCUCCUGACUAATT; chemistry not given here; listed as Homo sapiens) [compound 60]
- per_cell (primary screen, 72 h): 157
- VIA (primary screen, 72 h): 103.9

Substance: 155 (GCCUUGCUCCGAACCUUCATT; chemistry not given here; listed as Homo sapiens) [compound 155]
- Viable cell density (%) [1]: 94.839%
- per cell luciferase yield (%) [1]: 169.972%
- Luciferase activity (%): 161.1%
- Per cell luciferase yield (%): 169.9%
- Viable cell number (%): 94.8%

Substance: 82 (GUCCUAUCACCGUAUCUUATT; chemistry not given here; listed as Homo sapiens) [compound 82]
- per_cell (primary screen, 72 h): 266.6
- VIA (primary screen, 72 h): 55.96

Substance: 136 (AGGUUACAGAGGACUCAGATT; chemistry not given here; listed as Homo sapiens) [compound 136]
- Viable cell density (%) [1]: 49.189%
- per cell luciferase yield (%) [1]: 299.886%

Substance: 129 (GCUAUUUCCAGCGAAUAUATT; chemistry not given here; listed as Homo sapiens) [compound 129]
- Viable cell density (%) [1]: 81.492%
- per cell luciferase yield (%) [1]: 244.722%
